{"source": "patent US20160235807A1", "about": "“AGONISTS OF GUANYLATE CYCLASE USEFUL FOR DOWNREGULATION OF PRO-INFLAMMATORY CYTOKINES” (SYNERGY PHARMACEUTICALS, INC., priority 2013, published 2016)", "key": {"colonic explants [1]": {"tested_on": "colonic explants", "assay": "Explant cultures of colon tissue from TCRα−/− mice, cytokine and chemokine ELISA", "type": "in vivo, mouse", "details": "explant culture 24 h, plecanatide treated mice", "description": "(§1) Colonic tissue fragments (0.5 g dry weight) from the TNBS-induced colitis mice and TCRα^−/− knockout mice were processed as previously described (Hegazi et al., 2005). Tissue fragment supernatants were collected after 24 h for cytokine ELISAs. Murine immunoassay kits (R&D System) were used according to the manufacturer's instructions for IL-12p40, IL-23 and TNF. Linco Cytokine-16 plex Mouse ELISA was performed for MIP-1α, RANTES, IL-10 and IL-17 (Millipore) as per manufacturer's instructions.\n(§2) Murine IL-12 p40, IL-1β, TNF, IFN-γ, immunoassay kits (R&D System, MN, USA) were used according to the manufacturer's instructions. Linco Cytokine-16 plex Mouse ELISA was performed for MIP-1α, RANTES, IL-10, TNF and IL-17 (Millipore, Billerica, Mass.) as per manufacturer's instructions."}, "DSS-induced colitis": {"tested_on": "DSS-induced colitis", "assay": "DSS-induced colitis in BDF-1 mice", "type": "in vivo, mouse", "description": "To evaluate the efficacy of plecanatide in DSS induced colitis model, 48 BDF-1 mice were divided into 8 treatment groups (6 mice/group). One group was not exposed to DSS (untreated control) and groups 2-8 were treated with 5% DSS in the drinking water on day 0. Plecanatide or SP-333 solutions formulated in 0.1M phosphate buffer (pH 7) was administered by oral gavage, once a day at 0.005, 0.05, 0.5, 2.5 and 5 mg/kg, from study day −1 (i.e. prior to initiation of DSS treatment) through day 6 for SP-333 or day 7 for plecanatide. DSS treatment was initiated on day 0 for groups 2-8 until the end of the study. Sulfasalazine (80 mg/kg) or 5-ASA (100 mg/kg) was used as positive control and was administered daily. Mice were sacrificed on day 7. The large intestine was removed and weighed. Distal section of the large intestine was collected and fixed as described above.\n(§3) Disease activity index (DAI) was calculated by scoring in-life parameters starting from day −1 until the end of the study. Once daily, all mice were weighed and assessed for stool consistency, and the presence of overt blood in the stool or around the anus essentially similar to that reported earlier. Colitis severity was assessed by histopathological analyses of H&E stained tissue sections (Hegazi et al., 2005; Dave et al., 2009) employing the following criteria: (score 0) normal appearing crypts; (score 1) abnormal crypt pathology without ulceration; (score 2) depleted crypts with ulceration; (score 3) 20-50% depleted crypts and increased ulceration; (score 4) >50% depleted crypts with substantial ulceration and (score 5) totally ulcerated/inflamed colon with no crypts remaining. All slides were scored in a blinded manner. Colitis severity in TCRα−/− model was scored as previously described^25. All slides were scored in a blinded manner. Disease activity index (DAI) was calculated by assessing body weight, stool consistency, and the presence of overt blood in stools or around the anus, essentially similar to that reported earlier (Hamamoto et al., 1999)."}, "colon dysplasia": {"tested_on": "colon dysplasia", "details": "oral plecanatide; Chang et al., 2014; Shailubhai et al., 2012; cited from earlier work"}, "TNBS-induced colitis [2]": {"tested_on": "TNBS-induced colitis", "assay": "TNBS-induced colitis in BDF-1 mice", "type": "in vivo, mouse", "description": "Mouse strains BDF1 and BALB/c were used to examine the efficacy of plecanatide in TNBS induced colitis. The procedures used were as previously described (Hegazi et al., 2005; Dave et al., 2009). Briefly, to induce colitis in specific pathogen-free 2-4 months old female BALB/c mice, 0.5 mg of TNBS in 50% ethanol was slowly administered into the lumen of the colon via a 3.5 F catheter fitted onto a 1-ml syringe (total injection volume 100 μl). Plecanatide formulated in PBS was administered by oral gavage for a total of 7 days, with the first dose given one day prior to TNBS challenge. Mice were observed daily for body weight, food consumption and for signs of any apparent toxicity, rectal bleeding or prolapse. After 7 days of treatment, GI tissue collection, fixation and histopathological scoring were performed essentially as described previously (Sheikh et al., 2011). GI tissues were also collected and immediately processed for explant culture and cytokine expression as described below.\nTo induce colitis in BDF1 mice, a total of 90, 10-12 week old, H. pylori free male mice were used. Animals were randomized into 9 groups. TNBS was rectally administered as described above in a total injection volume of 100 μl. Oral administration of PBS formulated plecanatide (0.0005-50 mg/kg), animal monitoring and collection of GI tissues was performed as described above. Daily administration of plecanatide was continued through day 6, when the mice were euthanized. […] Distal sections were fixed, stained with H&E, and evaluated for histopathology and visual severity scores (Hegazi et al., 2005; Dave et al., 2009). […]\nas §3"}, "TNBS-induced colitis [3]": {"tested_on": "TNBS-induced colitis", "assay": "TNBS-induced colitis in BALB/c mice", "type": "in vivo, mouse", "details": "plecanatide 0.5 and 2.5 mg/kg oral once daily 7 days; p<0.05; preliminary study", "description": "Mouse strains BDF1 and BALB/c were used to examine the efficacy of plecanatide in TNBS induced colitis. The procedures used were as previously described (Hegazi et al., 2005; Dave et al., 2009). Briefly, to induce colitis in specific pathogen-free 2-4 months old female BALB/c mice, 0.5 mg of TNBS in 50% ethanol was slowly administered into the lumen of the colon via a 3.5 F catheter fitted onto a 1-ml syringe (total injection volume 100 μl). Plecanatide formulated in PBS was administered by oral gavage for a total of 7 days, with the first dose given one day prior to TNBS challenge. […]\nas §3, with “All slides were scored in a blinded manner. Colitis severity in TCRα−/− model was scored as previously described^25. All slides were scored in a blinded manner. Disease activity index (DAI) was calculated by assessing body weight, stool consistency, and the presence of overt blood in stools or around the anus, essentially similar to that reported earlier (Hamamoto et al., 1999).” left out"}, "[4]": {"type": "in vitro ADME", "description": "(§4) Plecanatide and SP-333 were incubated in simulated intestinal fluid (SIF) for 6-24 h. Inactivated SIF was used as a control. Following the treatment, samples were analyzed by HPLC by cGMP production in T84 cells. […] The active metabolite, SP-338 was characterized by MS and MS/MS and identified to be formed via removal of carboxyl terminal leucine possibly due to cleavage by carboxypeptidases."}, "colitis in TCRα −/− mice": {"tested_on": "colitis in TCRα −/− mice", "assay": "Spontaneous colitis in TCRα−/− mice", "type": "in vivo, mouse", "details": "plecanatide 0.5 and 2.5 mg/kg oral daily for 14 days; vs vehicle", "description": "TCRα^−/− mice were matched for age and sex in all experiments. 16 week old TCRα−/− mice were treated with plecanatide at 0.5 or 2.5 mg/kg/day or PBS vehicle control by oral gavage for 14 days (6 mice per group). Mice were sacrificed 12 h after the final dose, and GI tissues were collected for experimental analyses. Colitis severity in TCRα^−/− model was scored as described (Berg et al., 1996).\nas §3, with “Disease activity index (DAI) was calculated by assessing body weight, stool consistency, and the presence of overt blood in stools or around the anus, essentially similar to that reported earlier (Hamamoto et al., 1999).” left out"}, "colonic explants [5]": {"tested_on": "colonic explants", "assay": "Explant cultures of colon tissue from TNBS-induced colitis BALB/c mice, cytokine ELISA", "type": "in vivo, mouse", "details": "24 h, vs vehicle-treated explants", "description": "as §1, §2"}, "[6]": {"type": "in vitro ADME", "description": "(§5) The potency of test peptides to stimulate cGMP synthesis in T84 cells was assayed by a published procedure (Shailubhai et al. 2000). Briefly, confluent monolayers of T-84 cells in 24-well plates were washed twice with 250 μl of DMEM containing 50 mM HEPES (pH 7.4), pre-incubated at 37° C. for 10 min with 250 μl of DMEM containing 50 mM HEPES (pH 7.4) and 1 mM isobutylmethylxanthine (IBMX), followed by incubation with test peptide for 30 min. The medium was aspirated, and the reaction was terminated by the addition of 3% perchloric acid. Following centrifugation, and neutralization with 0.1 N NaOH, the resulting supernatant was used directly for measurements of intracellular cGMP using an ELISA kit (Caymen Chemical, Ann Arbor, Mich.). Results are expressed as pmol of cGMP/mg of protein in the cell extracts.\nas §4", "remark": "listed apart in the source"}, "GC-C Receptor": {"biological_target": "T1, GC-C Receptor (Homo sapiens, UniProt P25092)", "T1 construct": "endogenous in cells; host or cells: T84 human colon carcinoma cells", "T1 sequence (P25092 24-1073)": "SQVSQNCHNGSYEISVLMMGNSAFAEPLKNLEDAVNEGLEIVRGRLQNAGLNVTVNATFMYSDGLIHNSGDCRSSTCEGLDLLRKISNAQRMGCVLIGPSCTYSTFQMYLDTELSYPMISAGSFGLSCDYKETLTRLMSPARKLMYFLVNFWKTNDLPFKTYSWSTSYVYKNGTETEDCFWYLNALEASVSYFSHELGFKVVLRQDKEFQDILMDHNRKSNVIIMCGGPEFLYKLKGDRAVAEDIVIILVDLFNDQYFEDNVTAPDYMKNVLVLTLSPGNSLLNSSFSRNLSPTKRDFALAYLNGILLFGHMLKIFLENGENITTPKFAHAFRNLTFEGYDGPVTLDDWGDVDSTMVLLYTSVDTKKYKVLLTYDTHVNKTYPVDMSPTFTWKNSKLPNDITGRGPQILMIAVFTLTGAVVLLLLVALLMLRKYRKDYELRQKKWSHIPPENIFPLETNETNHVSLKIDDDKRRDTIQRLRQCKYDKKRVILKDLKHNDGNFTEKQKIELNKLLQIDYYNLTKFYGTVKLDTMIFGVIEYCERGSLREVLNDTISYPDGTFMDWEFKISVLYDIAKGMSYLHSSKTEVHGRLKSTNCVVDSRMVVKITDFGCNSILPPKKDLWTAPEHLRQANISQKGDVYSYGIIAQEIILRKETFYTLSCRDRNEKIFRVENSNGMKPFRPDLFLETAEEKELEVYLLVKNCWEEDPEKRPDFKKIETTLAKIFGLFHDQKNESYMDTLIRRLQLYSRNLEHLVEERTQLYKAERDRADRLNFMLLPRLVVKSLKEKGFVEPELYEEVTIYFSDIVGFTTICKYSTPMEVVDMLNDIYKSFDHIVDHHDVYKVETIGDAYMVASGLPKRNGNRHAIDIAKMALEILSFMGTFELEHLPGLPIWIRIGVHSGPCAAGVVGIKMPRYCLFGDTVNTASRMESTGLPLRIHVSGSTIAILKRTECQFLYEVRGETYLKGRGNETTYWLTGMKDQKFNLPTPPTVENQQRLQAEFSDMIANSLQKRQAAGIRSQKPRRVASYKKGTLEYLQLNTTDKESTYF", "assay": "Cyclic GMP stimulation assay in T84 cells", "type": "cell-based", "description": "as §5"}}, "note": "“Also recorded” adds a separate entry of the source. Bridge positions count the residues as written; N and C are the ends. Peptide text beside a SMILES is read from it.", "data": [{"compound": "CC(C)C[C@H](NC(=O)[C@@H]1CSSC[C@@H]2NC(=O)[C@H](CC(C)C)NC(=O)[C@H](CCC(=O)O)NC(=O)[C@@H](NC(=O)[C@H](CCC(=O)O)NC(=O)[C@H](CC(=O)O)NC(=O)[C@@H](N)CC(N)=O)CSSC[C@H](NC(=O)[C@H](C)NC(=O)[C@H](C(C)C)NC(=O)[C@H](CC(N)=O)NC(=O)[C@H](C(C)C)NC2=O)C(=O)N[C@@H]([C@@H](C)O)C(=O)NCC(=O)N1)C(=O)O", "note": "[plecanatide, Asn^1-Asp^2-Glu^3-Cys^4-Glu^5-Leu^6-Cys^7-Val^8-Asn^9-Val^10-Ala^11-Cys^12-Thr^13-Gly^14-Cys^15-Leu^16] (H-NDECELCVNVACTGCL-OH; disulfide 4-12, 7-15 (inferred))", "values": [{"measurement": "levels of secreted IL-10", "setting": "colonic explants [1]", "value": "increased"}, {"measurement": "production of IL-17", "setting": "colonic explants [1]", "value": "considerably suppressed"}, {"measurement": "production of MIP-1α", "setting": "colonic explants [1]", "value": "considerably suppressed"}, {"measurement": "production of RANTES", "setting": "colonic explants [1]", "value": "considerably suppressed"}, {"measurement": "DSS induced colitis severity score", "setting": "DSS-induced colitis; plecanatide 0.005 mg/kg oral gavage once a day, vs untreated controls p=0.02", "value": "significantly lower; also recorded: as effective as sulfasalazine (80 mg/kg)"}, {"measurement": "amelioration of DSS-induced colitis at higher doses", "setting": "DSS-induced colitis; plecanatide doses higher than 0.005 mg/day (so in the source)", "value": "did not produce incremental effect"}, {"measurement": "colitis severity compared with reference compound sulfasalazine (80 mg/kg)", "setting": "DSS-induced colitis; plecanatide, DSS model", "value": "superior to treatment with reference compound"}, {"measurement": "colon dysplasia", "setting": "colon dysplasia", "value": "considerably reduced"}, {"measurement": "colitis severity", "setting": "TNBS-induced colitis [2]; plecanatide 0.05 mg/kg and higher doses oral, vs untreated controls", "value": "significantly lower; also recorded: statistically significant reduction"}, {"measurement": "colitis severity", "setting": "TNBS-induced colitis [2]; plecanatide doses under 0.005 mg/kg oral", "value": "ineffective"}, {"measurement": "effective dose-range", "setting": "TNBS-induced colitis [2]; plecanatide oral, TNBS model", "value": "0.05 to 0.5", "unit": "mg/kg"}, {"measurement": "colitis severity compared with reference compound sulfasalazine (80 mg/kg)", "setting": "TNBS-induced colitis [2]; plecanatide, TNBS model", "value": "superior to treatment with reference compound"}, {"measurement": "colitis scores", "setting": "TNBS-induced colitis [3]", "value": "significantly lower; also recorded: effectively ameliorated"}, {"measurement": "HPLC analysis after digestion with SIF", "setting": "[4]", "value": "completely converts plecanatide into a shorter peptide"}, {"measurement": "time over which intact peptide was stable, HPLC", "setting": "[4]", "value": "up to 6 h"}, {"measurement": "colitis scores", "setting": "colitis in TCRα −/− mice", "value": "reduced"}, {"measurement": "suppression of secretion of IL-12p40", "setting": "colonic explants [5]", "value": 37, "unit": "%"}, {"measurement": "suppression of secretion of IL-23", "setting": "colonic explants [5]", "value": 84, "unit": "%"}, {"measurement": "suppression of secretion of TNF", "setting": "colonic explants [5]", "value": 67, "unit": "%"}, {"measurement": "activity retained", "setting": "[6]", "value": "~70", "unit": "%"}, {"measurement": "biological activity lost", "setting": "[6]", "value": "~35", "unit": "%"}, {"measurement": "potency to stimulate cGMP in T84 cells", "setting": "GC-C Receptor", "value": "dose dependent increase in cGMP; also recorded: comparable to that of SP-333"}]}]}
